Earlier results in patent publication US20120289568A1, “COMBINATIONS OF OXYBUTYNIN AND SALIVARY STIMULANTS FOR THE TREATMENT OF OVERACTIVE BLADDER” (THERAVIDA, INC., priority 2011, published 2012).

Conditions: 5 mg of pilocarpine

## CC[C@@H]1C(=O)OC[C@@H]1Cc1cncn1C [pilocarpine]
  time of maximum saliva output after administration: about 30 minutes
